Source: patent US11420962B2, “Indene derivatives useful in treating pain and inflammation” (TARO PHARMACEUTICALS INC., priority 2018, dated 2022)

What was measured:
Rat DRG = test: Rat dorsal root ganglion excitability response (EFS, Ca2+ transients); format: cell-based; details: Rattus norvegicus; Table 3; electrical field stimulation, Ca5 indicator; read-out: Scoring (EC50, Rat DRG excitability)
Procedure: Dorsal root ganglions (DRGs) were dissected from adult rats. The tissue was processed, and cells were seeded into call culture plates (48 center wells of one quadrant in 384-well plates) and cultured for 2 days prior to Electrical field stimulation (EFS). To visualize the neuronal excitability response, intracellular Ca^+2 transients were monitored using the Ca^+2 indicator, Ca5. Ca5 was added to the cultures 1 h prior to EFS. Representative test compounds of the invention (i.e., test compounds) and reference compound, tetracaine, were added in concentration-response format encompassing six concentrations, performed in duplicate. The highest concentration tested was typically 30 μM with 1 in 3 dilutions generating the subsequent concentrations.
Effects on DRG excitability by the test compounds and standard were evaluated using four EFS protocols as disclosed in Table 2.
Experimental results were performed using two separate sets of plates using separate test compound and standard dilutions, to provide n=2. In the first set of experiments, compounds were added 24 h prior to EFS to increase the possibility to also detect more long-term compound effects. In the second set of experiments the compounds were added directly prior to EFS. Excitability response to EFS was analyzed as the average fluorescence ratio (peak/baseline) change per well. All plates were evaluated using high content imaging equipment post-EFS, imaging the Ca5 background staining to detect any possible compound-related toxic effects.
Average response by the standard compound, tetracaine, was 4.05 μM.

[1] = Metabolism by human liver microsomes; format: in vitro ADME; details: Table 8; 10 µM, in the presence of NADPH, 1 mg/mL protein
Procedure: Representative compounds of the invention (i.e., test compounds) and the positive control, 7-ethoxycoumarin, were prepared as stock solutions at 10 mM in DMSO and eventually diluted to 10 μM in the test plate, with an appropriate amount of acetonitrle and tris HCl buffer. Final DMSO and acetonitrile concentrations were […] and 0.5% respectively. NADPH was prepared in tris HCl buffer to a stock of 10 mM. A frozen aliquot of live microsomes was retrieved from the freezer (−80° C.) and thawed by placing the tube on wet ice. After thawing, the tubes were gently mixed and the required amount, transferred to tris HCl buffer. Test compounds or positive control were pre-incubated, separately, for 10 minutes, with liver microsomes (1 mg/mL protein), at 37° C., in 100 mM Tris HCl at pH 7.5. After preincubation the reaction was started by adding 1 mM NADPH (pre-equilibrated to […]) and the reaction allowed to proceed for 60 minutes. At 60 minutes, a 50 μL aliquot was removed and quenched with 200 uL of acetonitrile containing a mixture of internal standards (Tolbutamide (500 ng/mL) and Telmistartan (500 ng/mL)) and vortexed then centrifuged at 4000 rmp for 10 minutes (Eppendorf 5810R). The supernatant was transferred to a 96 well plate for LC-MS/MS analysis.
An LC-MS/MS method was devised for the test compounds and the control, using a AB Sciex API 4000 system coupled to a NEXAR™ UHPLC (Shimadzu) system. Analytes were separated on a Phenomenex Kinetex C18 column (50×2.1 mm, 5 μm) using a gradient that was appropriate for each compound, at a flow rate of 1 ml/minute, utilizing a mobile phase of 0.1% formic acid in MILLI-Q™ water (A) and 0.1% formic acid in acetonitrile (B). The MS instrument was operated in positive mode (ESI+)/negative (ESI−). The multiple reaction monitoring (MRM) transition for test and control compounds was used for the LC-MS/MS analysis. MRM transitions for control compound 7-ethoxycoumarinm were Quadropole 1: 191.0, Quadropole 3: 163.0, dwell time: 75 msec, using curtain gas settings of 5 V, ion-spray voltage of 5500 V, temperature of 50° C. and gas settings for nebulizer and auxiliary set to 30 and 40 psi, respectively. The interface heater was kept on. Entrance potential and collision cell exit potential were varied to tune for a specific compound.
Using a suitable LC-MS/MS method, the percentage of drug remaining at 60 minutes ([…]) was assessed by comparing the average analyte to internal standard area ratio at 60 minutes to the average analyte to internal standard area ratio at 0 time control, as a percentage, from a 5 to 10 μL sample injection.
According to the above assay, the representative compounds listed in Table 8 below were active in the Human liver microsome assay at […] and the % of drug remaining after 60 minutes (PDR60), in the presence of NADPH, was assessed by LC-MS/MS. Average PDR60 for the standard compound, 7-ethoxycoumarin was <=65% in the presence of NADPH. Scoring for the test compounds, in the presence of NADPH, was as follows: “A” represents a PDR^60 of 81 to 100%, “B” represents a PDR^60 of 61 to 80%, “C” represents a PDR^60 of 31 to 60% and “D” represents a PDR^60 of 0 to 30%.

Row | Structure (SMILES) | Scoring (% of drug remaining after 60 minutes, PDR60) [1] | EC50 (Rat DRG)
1 | C=C1CC[C@H]2[C@H](CN)[C@@H]([C@@]3(C)Cc4cn(Cc5ccccc5)nc4C[C@@H]3CO)CC[C@]12C [Ia-19, ((5R,6S)-5-((3aS,4R,5S,7aS)-4-(aminomethyl)-7a-methyl-1-methyleneoctahydro-1H-inden-5-yl)-2-benzyl-5-methyl-4,5,6,7-tetrahydro-2H-indazol-6-yl)methanol] | B (a PDR^60 of 61 to 80%) | 2 to 6 µM
2 | C[C@H]1CC[C@H]2[C@H](CN)[C@@H]([C@@]3(C)Cc4cn(-c5ccccc5)nc4C[C@@H]3CO)CC[C@]12C [Ia-36, ((5R,6S)-5-((1S,3aS,4S,5S,7aR)-4-(aminomethyl)-1,7a-dimethyloctahydro-1H-inden-5-yl)-5-methyl-2-phenyl-4,5,6,7-tetrahydro-2H-indazol-6-yl)methanol] | A (a PDR^60 of 81 to 100%) | 2 to 6 µM
3 | C[C@H]1CC[C@H]2[C@H](CN)[C@@H]([C@@]3(C)Cc4cn(C(C)(C)C)nc4C[C@@H]3CO)CC[C@]12C [Ia-41, ((5R,6S)-5-((1S,3aS,4S,5S,7aR)-4-(aminomethyl)-1,7a-dimethyloctahydro-1H-inden-5-yl)-2-(tert-butyl)-5-methyl-4,5,6,7-tetrahydro-2H-indazol-6-yl)methanol] | A (a PDR^60 of 81 to 100%) | < 2 µM
4 | C=C1CC[C@H]2[C@H](CN3CCCCC3)[C@@H]([C@@]3(C)Cc4cn[nH]c4C[C@@H]3CO)CC[C@]12C [Ia-47, ((5R,6S)-5-methyl-5-((3aS,4R,5S,7aS)-7a-methyl-1-methylene-4-(piperidin-1-ylmethyl)octahydro-1H-inden-5-yl)-4,5,6,7-tetrahydro-1H-indazol-6-yl)methanol] | D (a PDR^60 of 0 to 30%) | 6 to 15 µM
5 | C=C1CC[C@H]2[C@H](CN3CCN(C)CC3)[C@@H]([C@@]3(C)Cc4cn[nH]c4C[C@@H]3CO)CC[C@]12C [Ia-48, ((5R,6S)-5-methyl-5-((3aS,4R,5S,7aS)-7a-methyl-1-methylene-4-((4-methylpiperazin-1-yl)methyl)octahydro-1H-inden-5-yl)-4,5,6,7-tetrahydro-1H-indazol-6-yl)methanol] | D (a PDR^60 of 0 to 30%) | 6 to 15 µM
6 | CC=C1CC[C@H]2[C@H](CN)[C@@H]([C@@]3(C)Cc4cn[nH]c4C[C@@H]3CO)CC[C@]12C [Ia-65, ((5R,6S)-5-((3aS,4R,5S,7aS)-4-(aminomethyl)-1-ethylidene-7a-methyloctahydro-1H-inden-5-yl)-5-methyl-4,5,6,7-tetrahydro-1H-indazol-6-yl)methanol] | A (a PDR^60 of 81 to 100%) | 6 to 15 µM
7 | C=C1CC[C@H]2[C@H](CO)[C@@H]([C@@]3(C)Cc4cn[nH]c4C[C@@H]3CN3CCOCC3)CC[C@]12C [Ia-72, ((3aS,4R,5S,7aS)-7a-methyl-5-((5R,6S)-5-methyl-6-(morpholinomethyl)-4,5,6,7-tetrahydro-1H-indazol-5-yl)-1-methyleneoctahydro-1H-inden-4-yl)methanol] | D (a PDR^60 of 0 to 30%) | > 15 µM
8 | C=C1CC[C@H]2[C@H](CN)[C@@H]([C@@]3(C)Cc4cn[nH]c4C[C@@H]3CN3CCOCC3)CC[C@]12C [Ia-76, ((3aS,4R,5S,7aS)-7a-methyl-5-((5R,6S)-5-methyl-6-(morpholinomethyl)-4,5,6,7-tetrahydro-1H-indazo1-5-yl)-1-methyleneoctahydro-1H-inden-4-yl)methanamine] | D (a PDR^60 of 0 to 30%) | 6 to 15 µM
9 | C=C1CC[C@H]2[C@H](CO)[C@@H]([C@@]3(C)Cc4cn[nH]c4C[C@@H]3CN)CC[C@]12C [Ia-82, ((3aS,4R,5S,7aS)-5-((5R,6S)-6-(aminomethyl)-5-methyl-4,5,6,7-tetrahydro-1H-indazol-5-yl)-7a-methyl-1-methyleneoctahydro-1H-inden-4-yl)methanol] | B (a PDR^60 of 61 to 80%) | 6 to 15 µM
10 | C=C1CC[C@H]2[C@H](CN)[C@@H]([C@@]3(C)Cc4nccnc4C[C@@H]3CO)CC[C@]12C [Ib-2, ((6S,7R)-7-((3aS,4R,5S,7aS)-4-(aminomethyl)-7a-methyl-1-methyleneoctahydro-1H-inden-5-yl)-7-methyl-5,6,7,8-tetrahydroquinoxalin-6-yl)methanol] | B (a PDR^60 of 61 to 80%) | > 15 µM

Second part, led by results:

Row | Scoring (% of drug remaining after 60 minutes, PDR60) [1] | Structure (SMILES) | EC50 (Rat DRG)
11 | D (a PDR^60 of 0 to 30%) | C=C1CC[C@H]2[C@H](CN)[C@@H]([C@@]3(C)Cc4cnn(-c5cccnc5)c4C[C@@H]3CO)CC[C@]12C [Ia-20, ((5R,6S)-5-((3aS,4R,5S,7aS)-4-(aminomethyl)-7a-methyl-1-methyleneoctahydro-1H-inden-5-yl)-5-methyl-1-(pyridin-3-yl)-4,5,6,7-tetrahydro-1H-indazol-6-yl)methanol] | 6 to 15 µM
12 | D (a PDR^60 of 0 to 30%) | C=C1CC[C@H]2[C@H](CN)[C@@H]([C@@]3(C)Cc4cnn(CC(C)(C)C)c4C[C@@H]3CO)CC[C@]12C [Ia-22, ((5R,6S)-5-((3aS,4R,5S,7aS)-4-(aminomethyl)-7a-methyl-1-methyleneoctahydro-1H-inden-5-yl)-5-methyl-1-neopentyl-4,5,6,7-tetrahydro-1H-indazol-6-yl)methanol] | 2 to 6 µM
13 | A (a PDR^60 of 81 to 100%) | C=C1CC[C@H]2[C@H](CN)[C@@H]([C@@]3(C)Cc4cnc(N)nc4C[C@@H]3CO)CC[C@]12C [Ic-1, ((6R,7S)-2-amino-6-((3aS,4R,5S,7aS)-4-(aminomethyl)-7a-methyl-1-methyleneoctahydro-1H-inden-5-yl)-6-methyl-5,6,7,8-tetrahydroquinazolin-7-yl)methanol] | > 15 µM
14 | A (a PDR^60 of 81 to 100%) | C=C1CC[C@H]2[C@H](CN)[C@@H]([C@@]3(C)Cc4cncnc4C[C@@H]3CO)CC[C@]12C [Ic-3, ((6R,7S)-6-((3aS,4R,5S,7aS)-4-(aminomethyl)-7a-methyl-1-methyleneoctahydro-1H-inden-5-yl)-6-methyl-5,6,7,8-tetrahydroquinazolin-7-yl)methanol] | > 15 µM
15 | C (a PDR^60 of 31 to 60%) | C=C1CC[C@H]2[C@H](CN)[C@@H]([C@@]3(C)Cc4cc[nH]c4C[C@@H]3CO)CC[C@]12C [Id-1, ((5R,6S)-5-((3aS,4R,5S,7aS)-4-(aminomethyl)-7a-methyl-1-methyleneoctahydro-1H-inden-5-yl)-5-methyl-4,5,6,7-tetrahydro-1H-indol-6-yl)methanol] | 6 to 15 µM
